The text below walks through data of patent US20140288040A1, “SUBSTITUTED BENZYLAMINE COMPOUNDS, THEIR USE IN MEDICINE, AND IN PARTICULAR THE TREATMENT OF HEPATITIS C VIRUS (HCV) INFECTION” (ASTEX THERAPEUTICS LIMITED, priority 2011, published 2014).

Experiment [1] has as its target T1, HCV NS3 protease (full length NS34a) (Hepatitis C virus genotype 1b, UniProt P26663).
T1 construct: The protease activity of the full length NS34a was measured using a FRET-based assay; made in house
Put plainly: HCV NS3 protease assay (FRET, full length NS34a). It counts as biochemical. Particulars: for inhibition at 0.01 µM: read-out: Activity % inhibition @ 0.01 μM. Summed up: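 Full-length NS34a incubated with compound and an NS4AB cleavage-site FRET peptide (QXL520 quencher, 5-FAMsp fluorophore) in 50 mM Tris pH8, 20 mM DTT, 1% CHAPS, 10% glycerol, 5% DMSO. Fluorescence followed for 30 minutes at room temperature; IC50 from initial rates of replicate progress curves.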

In experiment [2] the test system is HCV subgenomic replicon in Huh-7 cells. Put plainly: Replicon assay, EC50 luciferase readout. Particulars: Hepatitis C virus, Huh-7, 72 h, single value, or second value of a pair x:y. It counts as cell-based, hepatitis C virus (HCV). Summed up: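 Huh-7 cells carrying a subgenomic HCV replicon (NS3-NS5b, firefly luciferase-neo fusion) were treated with compound for 72 h at 37°C, 5% CO2. EC50 derived from Bright-Glo luciferase signal as a proxy for HCV RNA; cell viability measured in parallel by Alamar blue.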
Background: A replicon is a self-replicating genome or part of one, used to study replication in cells.

Setting [3] is: protease activity of full length NS34a, FRET peptide substrate, read-out: Activity IC50.
[4] abbreviates: Huh-7 replicon cells, 72 h, read-out: Activity EC50 (μM) (EC50 luciferase readout).
The mark [5] stands for this setting: IC50 values of 10-150 μM against the protease activity of the full length NS34a, or at least 40% inhibition of protease activity at a concentration of 100 μM.

Each structure is given as a SMILES string. pIC50: −log10 of the molar value. Structures can show the parent of a compound that is named as a salt. Where two headings read alike, the source gives them in different places.

T1 sequence (P26663 1658-1711): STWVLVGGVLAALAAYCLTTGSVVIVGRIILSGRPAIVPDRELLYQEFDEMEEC
T1 sequence (P26663 1027-1657): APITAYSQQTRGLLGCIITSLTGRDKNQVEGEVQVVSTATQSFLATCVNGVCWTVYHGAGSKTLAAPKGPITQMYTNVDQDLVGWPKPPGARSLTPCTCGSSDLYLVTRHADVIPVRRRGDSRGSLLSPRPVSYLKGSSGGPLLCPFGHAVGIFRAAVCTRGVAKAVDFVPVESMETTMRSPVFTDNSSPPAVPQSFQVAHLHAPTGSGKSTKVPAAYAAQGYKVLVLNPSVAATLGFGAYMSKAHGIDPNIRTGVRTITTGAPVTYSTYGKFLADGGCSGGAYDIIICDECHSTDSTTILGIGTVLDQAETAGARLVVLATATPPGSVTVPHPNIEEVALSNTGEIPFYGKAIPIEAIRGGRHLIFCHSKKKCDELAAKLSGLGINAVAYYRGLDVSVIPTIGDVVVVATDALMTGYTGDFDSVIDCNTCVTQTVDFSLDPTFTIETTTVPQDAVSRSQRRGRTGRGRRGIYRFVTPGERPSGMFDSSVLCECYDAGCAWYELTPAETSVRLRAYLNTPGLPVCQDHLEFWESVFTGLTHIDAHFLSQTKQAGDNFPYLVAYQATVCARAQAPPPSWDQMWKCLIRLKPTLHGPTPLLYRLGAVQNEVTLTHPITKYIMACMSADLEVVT

Consider `C[C@H](CC(=O)NCCN)NCc1ccc(Cl)c(Oc2ccccc2)c1F` [Example 107, (R)—N-(2-Amino-ethyl)-3-(4-chloro-2-fluoro-3-phenoxy-benzylamino)-butyramide.dihydrochloride], for which, in experiment [1] (setting [3]), the pIC50 was 6.66. Further, in experiment [2] (setting [4]), the EC50 was more than 10 µM.

Take `CC[C@H](N)c1ccc(F)c(Oc2ccccc2)c1F` [Example 52]: the pIC50 in experiment [1] (setting [3]) is 5.74. For the same molecule, the EC50 in experiment [2] (setting [4]) was determined as 9.4 µM.

With `CC[C@H](N[C@@H](C)CO)c1ccc(F)c(Oc2ccccc2)c1F` [Example 64], the pIC50 in experiment [1] (setting [3]) is 6.37. Further, the EC50 in experiment [2] (setting [4]) worked out at 18 µM.

Turning to `CC[C@@H](N[C@H](CC(N)=O)C(C)C)c1ccc(Cl)c(Oc2ccccc2)c1F` [Example 143], the pIC50 in experiment [1] (setting [3]) was 6.27. In addition, in experiment [2] (setting [4]), the EC50 was 6.2 µM.

The molecule `CCC(NCc1[nH]cnc1C)c1ccc(F)c(Oc2ccccc2)c1F` (centres unmarked) [Example 24] showed a pIC50 in experiment [1] (setting [5]) of 3.82 to 5.00. The EC50 in experiment [2] (setting [4]) amounted to 18 µM.

`N[C@H](c1ccc(F)c(Oc2ccccc2)c1F)[C@@H]1CCCNC1` [Example 59B, C-(2,4-Difluoro-3-phenoxy-phenyl)-C-piperidin-3-yl-methylamine. dihydrochloride]: the pIC50 in experiment [1] (setting [3]) is 5.68. Also, the EC50 in experiment [2] (setting [4]) came to 3 µM.

Take `Cc1cc(Oc2c(F)ccc(CNc3ccncc3)c2F)ccc1N` [Example 225B, [3-(4-Amino-3-methyl-phenoxy)-2,4-difluoro-benzyl]-pyridin-4-yl-amine. hydrochloride]: the pIC50 in experiment [1] (setting [3]) is 6.14. In experiment [2] (setting [4]), the EC50 was found to be 0.68 µM.

In the case of `CC[C@H](N[C@H](C)CC(N)=O)c1ccc(Cl)c(Oc2ccccc2)c1F` [Example 80, (R)-3-[(S)-1-(4-Chloro-2-fluoro-3-phenoxy-phenyl)-propylamino]-butyramide.hydrochloride], in experiment [1] (setting [5]), the pIC50 is 3.82 to 5.00. For the same molecule, the EC50 in experiment [2] (setting [4]) is more than 10 µM.

As for `CC[C@@H](N[C@@H](C)CC(=O)NC1COC1)c1ccc(Cl)c(Oc2ccccc2)c1F` [Example 222], in experiment [1] (setting [3]), the negative logarithm of the IC50 (pIC50) is 6.43. Also, the EC50 in experiment [2] (setting [4]) is more than 10 µM.

Consider `CC[C@@H](N[C@@H](C)CC(N)=O)c1ccc(Cl)c(Oc2ccc(N)c(Cl)c2)c1F` [Example 266C, (S)-3-{(R)-1-[3-(4-Amino-3-chloro-phenoxy)-4-chloro-2-fluoro-phenyl]-propyl-amino}-butyramide.dihydrochloride], for which, in experiment [1] (setting [3]), the pIC50 is 7.06. The EC50 in experiment [2] (setting [4]) is 0.023 µM.

Turning to `CC[C@@H](N[C@@H](C)CC(N)=O)c1ccc(Cl)c(Oc2ccc(N)c(F)c2)c1F` [Example 333], in experiment [1] (setting [3]), the pIC50 was 7.21. Also, in experiment [2] (setting [4]), the EC50 was 0.057 µM.

Consider `CCC(NCC1CC1)c1ccc(F)c(Oc2ccccc2)c1F` (centres unmarked) [Example 22], for which the negative logarithm of the IC50 (pIC50) in experiment [1] (setting [3]) is 5.49. Besides, in experiment [2] (setting [4]), the EC50 stood at 6.6 µM.

As to `Fc1ccc(CNc2ccncc2)c(F)c1Oc1ccccc1` [Example 110, (2,4-Difluoro-3-phenoxy-benzyl)-pyridin-4-yl-amine.hydrochloride], the pIC50 in experiment [1] (setting [3]) was 5.59. The EC50 in experiment [2] (setting [4]) was 2.3 µM.

As for `CC[C@@H](NCCC(N)=O)c1ccc(Cl)c(Oc2ccccc2)c1F` [Example 97, 3-[(R)-1-(4-Chloro-2-fluoro-3-phenoxy-phenyl)-propylamino]-propionamide.hydrochloride], the pIC50 in experiment [1] (setting [3]) is 6.08. Moreover, the concentration for a half-maximal effect (EC50) in experiment [2] (setting [4]) was more than 10 µM.

`N[C@@H](c1ccc(F)c(Oc2ccccc2)c1F)[C@H]1CCOC1` (relative stereo) [Example 62, C-(2,4-Difluoro-3-phenoxy-phenyl)—C-(tetrahydro-furan-3-yl)-methylamine.hydrochloride]: the pIC50 in experiment [1] (setting [3]) is 5.14. Besides, the EC50 in experiment [2] (setting [4]) was more than 30 µM.

Consider `CC[C@@H](N[C@@H](C)CC(=O)NCC(N)=O)c1ccc(Cl)c(Oc2ccccc2)c1F` [Example 178], for which the pIC50 in experiment [1] (setting [3]) is 5.66. Further, the EC50 in experiment [2] (setting [4]) was 8 µM.

Turning to `CC[C@@H](N[C@@H](C)C(=O)NCCN)c1ccc(Cl)c(Oc2ccccc2)c1F` [Example 9, (S)—N-(2-Amino-ethyl)-2-[(R)-1-(4-chloro-2-fluoro-3-phenoxy-phenyl)-propylamino]-propionamide dihydrochloride], the inhibition at 0.01 µM in experiment [1] was 40.5%. In experiment [2] (setting [4]), the EC50 was found to be 10 µM.

`CCC(NC(C)CO)c1ccc(F)c(Oc2ccccc2)c1F` (centres unmarked) [Example 32]: the pIC50 in experiment [1] (setting [3]) is 6.06. Also, in experiment [2] (setting [4]), the EC50 worked out at 8 µM.

Turning to `CC[C@@H](N[C@@H](C)CC(N)=O)c1ccc(Cl)c(Oc2ccc(N)c(C)c2)c1F` [Example 127], the pIC50 in experiment [1] (setting [3]) was 6.96. For the same molecule, the concentration giving a half-maximal response (EC50) in experiment [2] (setting [4]) was determined as 0.014 µM.

Regarding `N[C@H]1CC[C@@H](NCc2ccc(F)c(Oc3ccccc3)c2F)CC1` [Example 283], the pIC50 in experiment [1] (setting [3]) was 6.12. Also, the EC50 in experiment [2] (setting [4]) came out at 0.27 µM.

For the molecule `CC[C@@H](N[C@H](C)CC(N)=O)c1ccc(Cl)c(Oc2ccc(N)c(C)c2)c1F` [Example 128], the pIC50 in experiment [1] (setting [3]) was 5.92. Moreover, the EC50 in experiment [2] (setting [4]) is more than 10 µM.

Regarding `CC[C@@H](N[C@@H](C)CC(N)=O)c1ccc(Cl)c(Oc2ccc(CC#N)cc2)c1F` [Example 211], the pIC50 in experiment [1] (setting [3]) was 7.14. In experiment [2] (read-out: Activity EC50 (μM) (EC50 luciferase readout), Huh-7 replicon cells, 72 h), the EC50 was 0.066 µM.

Take `CC[C@@H](N[C@@H](C)c1cc[nH]c1)c1ccc(Cl)c(Oc2ccccc2)c1F` [Example 164]: the pIC50 in experiment [1] (setting [3]) was 6.57. Further, in experiment [2] (setting [4]), the EC50 came out at 2.3 µM.

In the case of `CC[C@@H](N[C@@H](C)CC(=O)N[C@@H](C)CN)c1ccc(Cl)c(Oc2ccccc2)c1F` [Example 251], the pIC50 in experiment [1] (setting [3]) is 7.21. The EC50 in experiment [2] (setting [4]) stood at 1.8 µM.

In the case of `CC[C@@H](N[C@@H](C)CC(N)=O)c1ccc(Cl)c(Oc2ccc(C(N)=O)nc2)c1F` [Example 249], in experiment [1] (setting [3]), the pIC50 is 6.42. The EC50 in experiment [2] (setting [4]) worked out at 4.6 µM.

Turning to `CC[C@@H](N[C@@H](C)CC(N)=O)c1ccc(Cl)c(Oc2ccc(C#N)cc2)c1F` [Example 186], in experiment [1] (setting [3]), the pIC50 is 7.41. Further, the half-maximal effective concentration (EC50) in experiment [2] (setting [4]) was 0.13 µM.

For the molecule `C#Cc1ccc(Oc2c(Cl)ccc([C@@H](CC)N[C@@H](C)CC(N)=O)c2F)cc1` [Example 230], in experiment [1] (setting [3]), the pIC50 is 6.77. In addition, the EC50 in experiment [2] (setting [4]) was 0.48 µM.

For the molecule `CC[C@@H](N[C@@H](C)CC(N)=O)c1ccc(Cl)c(Oc2ccc(-c3cnco3)c(C)c2)c1F` [Example 317], the pIC50 in experiment [1] (setting [3]) was 6.35. Further, in experiment [2] (setting [4]), the EC50 turned out to be 2.7 µM.

With `NC(C1=NCCN1)c1ccc(F)c(Oc2ccccc2)c1F` (centres unmarked) [Example 50, C-(2,4-Difluoro-3-phenoxy-phenyl)-C-(4,5-dihydro-1H-imidazol-2-yl)-methylamine.dihydrobromide], the negative-log IC50 (pIC50) in experiment [1] (setting [5]) was 3.82 to 5.00. Further, the EC50 in experiment [2] (setting [4]) worked out at 23 µM.

In the case of `CC[C@@H](N[C@@H](C)CC(=O)NCCNC)c1ccc(Cl)c(Oc2ccccc2)c1F` [Example 241], in experiment [1] (0.01 μM compound), the inhibition at 0.01 µM is 47%. In experiment [2] (setting [4]), the EC50 was determined as 0.98 µM.

As for `CC[C@@H](N[C@@H](C)C(=O)NCCCN)c1ccc(Cl)c(Oc2ccccc2)c1F` [Example 331], the inhibition at 0.03 µM in experiment [1] (read-out: Activity % inhibition @ 0.03 μM, 0.03 μM compound) stood at 49.5%. The EC50 in experiment [2] (setting [4]) was more than 10 µM.

Consider `CC[C@@H](N[C@H](C)CC(=O)NCCN(C)C)c1ccc(Cl)c(Oc2ccccc2)c1F` [Example 242], for which the pIC50 in experiment [1] (setting [3]) was 5.41. For the same molecule, the EC50 in experiment [2] (setting [4]) is 0.89 µM.

Turning to `CCC(NC(C)C)c1ccc(F)c(Oc2ccccc2)c1F` (centres unmarked) [Example 34], the pIC50 in experiment [1] (setting [3]) is 5.40. Further, in experiment [2] (setting [4]), the EC50 stood at 1.2 µM.

Take `N[C@H](c1ccc(F)c(Oc2ccccc2)c1F)[C@H]1CCCNC1` [Example 60, C-(2,4-Difluoro-3-phenoxy-phenyl)-C-piperidin-3-yl-methylamine.dihydrochloride]: the pIC50 in experiment [1] (setting [5]) is 3.82 to 5.00. In experiment [2] (setting [4]), the concentration for a half-maximal effect (EC50) was 3 µM.

Usually pIC50 stands for −log10 of the IC50, conventionally taken in molar units. As a reminder, the EC50 is the concentration giving half of the maximal effect. The term inhibition denotes the change of the read-out against control, counted positive when it falls.
